Measurements from patent US20250243488A1, “METHODS OF MODULATING PROGRANULIN EXPRESSION USING ANTISENSE OLIGONUCLEOTIDES TARGETING REGULATORY RNAS” (Camp4 Therapeutics Corporation, priority 2022, published 2025).
Oligonucleotides are written 5' to 3', each unit as a sugar letter and its base; * is a phosphorothioate linkage, no mark a phosphodiester; rarer units and linkages stand in square brackets, end groups in braces. Plain capitals give the bases only. e = 2'-O-(2-methoxyethyl) (MOE); l = locked nucleic acid (LNA); [5mC] = 5-methylcytosine

Tested on: mGrn mRNA
Assay: mGrn mRNA qPCR in Neuro2a cells transfected with ASOs
Type: cell-based, mouse
Details: for mGRN mRNA FC: Table 14, 100 nM, 48 hours, normalized to sNTC3; for 40 nM FC (mGrn mRNA) / 80 nM FC (mGrn mRNA) / 160 nM FC (mGrn mRNA): transfection
Experimental: 57 ASOs targeting the Grn promoter (− strand) were screened in Neuro2a cells. Neuro2a cells were transfected with 100 nM of each of the ASOs listed in Table 14 and cells were harvested 48 hours later for Grn mRNA quantification using qPCR. Housekeeping genes for normalization were Gapdh and Ppia. Relative Grn mRNA levels were normalized to mRNA extracted from cells treated with sNTC3 (steric nontargeting control).
Next, 26 ASOs based on parent ASOs CO-3544 and CO-3595 were designed with different modifications and base walking. Neuro2a cells were transfected with either […] or 160 nM of each of the ASOs listed in Table 15, and cells were harvested 48 hours later for mGrn mRNA quantification using qPCR. As controls, cells were treated with sNTC3 or no ASO. Housekeeping genes for normalization were Gapdh and Ppia. Relative Grn mRNA levels were normalized to mRNA extracted from cells treated with sNTC3.
CO-3544 was modified to include PO/PS bonds and the efficacy in upregulating mGrn mRNA was determined.
Similarly, CO-3595 was modified to include varying PO/PS internucleotide bonds and the efficacy of these ASOs in upregulating mGrn mRNA was determined in Neuro2A cells.

CO-3566: ASO targeting the Grn promoter (− strand) (antisense eG*e[5mC]*eT*eA*eA*eT*eG*eG*eA*eA*eA*eT*eT*eG*eA*eG*eG*eT*eG*eG)
mGRN mRNA FC (Neuro2a): 1.1 FC

CO-5303: CO-3595 modified to include varying PO/PS internucleotide bonds (antisense e[5mC]*e[5mC]*eTeGeAeAe[5mC]eTeGeTeAeTeGeGe[5mC]eTeG*eA*e[5mC]*e[5mC])
40 nM FC (mGrn mRNA) (Table 16, Neuro2A): 1.3 FC | 80 nM FC (mGrn mRNA) (Table 16, Neuro2A): 1.6 FC | 160 nM FC (mGrn mRNA) (Table 16, Neuro2A): 1.8 FC

CO-3591: ASO targeting the Grn promoter (− strand) (antisense e[5mC]*e[5mC]*eA*e[5mC]*e[5mC]*eA*eG*e[5mC]*e[5mC]*eT*eA*e[5mC]*eT*e[5mC]*e[5mC]*eA*e[5mC]*eA*eG*eG)
mGRN mRNA FC (Neuro2a): 1.4 FC

CO-5301: CO-3544 modified to include PO/PS bonds (antisense lG*lT*eT*l[5mC]*lT*e[5mC]*l[5mC]*e[5mC]*lT*eA*lG*e[5mC]*lT*eG*lT*eG*lT*eA*lG*lT)
40 nM FC (mGrn mRNA) (Table 15, Neuro2a): 0.9 FC | 80 nM FC (mGrn mRNA) (Table 15, Neuro2a): 1.0 FC | 160 nM FC (mGrn mRNA) (Table 15, Neuro2a): 0.7 FC

CO-3554: ASO targeting the Grn promoter (− strand) (antisense eG*eG*e[5mC]*eT*e[5mC]*eT*eT*eT*e[5mC]*eT*e[5mC]*eT*eT*eT*e[5mC]*eG*eG*eA*e[5mC]*eG)
mGRN mRNA FC (Neuro2a): 1.2 FC

CO-5307: CO-3595 modified to include varying PO/PS internucleotide bonds (antisense e[5mC]*e[5mC]*eT*eG*eA*eA*e[5mC]*eT*eG*eT*eAeTeGeGe[5mC]eTeG*eA*e[5mC]*e[5mC])
40 nM FC (mGrn mRNA) (Table 16, Neuro2A): 1.0 FC | 80 nM FC (mGrn mRNA) (Table 16, Neuro2A): 1.1 FC | 160 nM FC (mGrn mRNA) (Table 16, Neuro2A): 1.1 FC

CO-3595: ASO targeting the Grn promoter (− strand) (antisense e[5mC]*e[5mC]*eT*eG*eA*eA*e[5mC]*eT*eG*eT*eA*eT*eG*eG*e[5mC]*eT*eG*eA*e[5mC]*e[5mC])
mGrn mRNA upregulation (Neuro2a, dose-dependent, normalized to sNTC3 (FIG. 13)): ≤ 1.8 fold | mGRN mRNA FC (Neuro2a): 2.3 FC | 40 nM FC (mGrn mRNA) (Table 16, Neuro2A): 1.2 FC | 80 nM FC (mGrn mRNA) (Table 16, Neuro2A): 1.3 FC | 160 nM FC (mGrn mRNA) (Table 16, Neuro2A): 1.4 FC

CO-3599: ASO targeting the Grn promoter (− strand) (antisense eA*eT*eG*eA*eT*eG*e[5mC]*eA*e[5mC]*e[5mC]*eA*eG*eT*e[5mC]*eT*eT*eA*e[5mC]*eA*e[5mC])
mGRN mRNA FC (Neuro2a): 1.0 FC

CO-3564: ASO targeting the Grn promoter (− strand) (antisense eA*e[5mC]*eG*e[5mC]*eA*eG*eG*eT*eA*eG*eG*eA*eG*eG*eA*e[5mC]*e[5mC]*e[5mC]*eT*e[5mC])
mGRN mRNA FC (Neuro2a): 1.1 FC

CO-3561: ASO targeting the Grn promoter (− strand) (antisense e[5mC]*e[5mC]*eT*e[5mC]*eT*eT*eG*eA*eA*eA*e[5mC]*eT*e[5mC]*e[5mC]*e[5mC]*e[5mC]*eT*eA*eGeG)
mGRN mRNA FC (Neuro2a): 1.3 FC

CO-3547: ASO targeting the Grn promoter (− strand) (antisense eA*eT*e[5mC]*eT*eG*eG*eA*eT*eT*eG*eG*e[5mC]*eT*e[5mC]*eA*e[5mC]*e[5mC]*eT*eT*eT)
mGRN mRNA FC (Neuro2a): 1.7 FC

CO-3585: ASO targeting the Grn promoter (− strand) (antisense eG*eT*e[5mC]*e[5mC]*e[5mC]*eA*e[5mC]*e[5mC]*eT*eT*eA*eT*e[5mC]*eA*eG*e[5mC]*e[5mC]*eT*e[5mC]*eT)
mGRN mRNA FC (Neuro2a): 1.7 FC

CO-5313: CO-3595 modified to include varying PO/PS internucleotide bonds (antisense e[5mC]*e[5mC]*eTeGeAeAe[5mC]eT*eG*eT*eA*eT*eG*eG*e[5mC]*eT*eG*eA*e[5mC]*e[5mC])
40 nM FC (mGrn mRNA) (Table 16, Neuro2A): 1.3 FC | 80 nM FC (mGrn mRNA) (Table 16, Neuro2A): 1.4 FC | 160 nM FC (mGrn mRNA) (Table 16, Neuro2A): 1.5 FC

CO-5293: CO-3544 modified to include PO/PS bonds (antisense GTTCTCCCTAGCTGTGTAGT; 2'-MOE, mixed PS/PO, 5-methylcytosine; listed as RNA; modified_base 1..9: mod_base = OTHER; note = Phosphorothioate linkage; modified_base 17..20: mod_base = OTHER; modified_base 1..20: mod_base = OTHER; note = 2'-O-(2-methoxyethyl) ribonucleotide; modified_base 4)
40 nM FC (mGrn mRNA) (Table 15, Neuro2a): 1.1 FC | 80 nM FC (mGrn mRNA) (Table 15, Neuro2a): 1.0 FC | 160 nM FC (mGrn mRNA) (Table 15, Neuro2a): 1.1 FC

CO-3590: ASO targeting the Grn promoter (− strand) (antisense eT*eA*eA*eT*eG*e[5mC]*e[5mC]*e[5mC]*eT*eT*eA*eT*e[5mC]*eT*eT*eG*eA*eA*e[5mC]*eG)
mGRN mRNA FC (Neuro2a): 1.2 FC

CO-3571: ASO targeting the Grn promoter (− strand) (antisense eG*e[5mC]*eT*eA*eT*eG*eT*eT*eG*eT*e[5mC]*eA*eT*eA*eT*eG*eA*eT*eT*e[5mC])
mGRN mRNA FC (Neuro2a): 1.4 FC

CO-3574: ASO targeting the Grn promoter (− strand) (antisense eG*e[5mC]*eT*e[5mC]*eT*e[5mC]*e[5mC]*eT*eA*eA*e[5mC]*eT*eG*eT*eG*eG*eG*eT*eG*e[5mC])
mGRN mRNA FC (Neuro2a): 1.3 FC

CO-5300: CO-3544 modified to include PO/PS bonds (antisense eG*eT*eTe[5mC]eTe[5mC]e[5mC]e[5mC]*eT*eA*eG*e[5mC]*eT*eG*eT*eG*eT*eA*eG*eT)
40 nM FC (mGrn mRNA) (Table 15, Neuro2a): 1.3 FC | 80 nM FC (mGrn mRNA) (Table 15, Neuro2a): 1.4 FC | 160 nM FC (mGrn mRNA) (Table 15, Neuro2a): 1.4 FC

CO-3578: ASO targeting the Grn promoter (− strand) (antisense eT*eT*e[5mC]*e[5mC]*eA*eA*e[5mC]*eT*eG*eG*eT*eT*eT*e[5mC]*eG*eA*eG*eT*e[5mC]*e[5mC])
mGRN mRNA FC (Neuro2a): 1.0 FC

CO-4083: ASO based on parent ASOs CO-3544 and CO-3595, different modifications and base walking (antisense e[5mC]*e[5mC]*eT*eG*eA*lA*e[5mC]*eT*lG*eT*eA*lT*eG*eG*l[5mC]*eT*eG*eA*e[5mC]*e[5mC])
40 nM FC (mGrn mRNA) (Table 16, Neuro2A): 1.3 FC | 80 nM FC (mGrn mRNA) (Table 16, Neuro2A): 1.4 FC | 160 nM FC (mGrn mRNA) (Table 16, Neuro2A): 1.6 FC

CO-3562: ASO targeting the Grn promoter (− strand) (antisense eG*e[5mC]*e[5mC]*eT*eG*eT*eG*e[5mC]*eA*eA*eT*eT*eG*eA*eGeG*eG*eT*e[5mC]*e[5mC])
mGRN mRNA FC (Neuro2a): 1.1 FC

CO-5297: CO-3544 modified to include PO/PS bonds (antisense eG*eT*eTe[5mC]eTe[5mC]e[5mC]e[5mC]eTeAeGe[5mC]eTeG*eT*eG*eT*eA*eG*eT)
40 nM FC (mGrn mRNA) (Table 15, Neuro2a): 1.0 FC | 80 nM FC (mGrn mRNA) (Table 15, Neuro2a): 1.1 FC | 160 nM FC (mGrn mRNA) (Table 15, Neuro2a): 1.2 FC

CO-3596: ASO targeting the Grn promoter (− strand) (antisense e[5mC]*eT*e[5mC]*eT*eA*eT*eG*eT*eA*eA*eG*eA*e[5mC]*eT*e[5mC]*e[5mC]*e[5mC]*eA*e[5mC]*eT)
mGRN mRNA FC (Neuro2a): 1.4 FC

CO-3577: ASO targeting the Grn promoter (− strand) (antisense e[5mC]*eT*eG*e[5mC]*e[5mC]*eA*eG*eG*e[5mC]*eG*eT*eG*eA*eA*eG*eA*eG*eA*e[5mC]*eA)
mGRN mRNA FC (Neuro2a): 1.1 FC

CO-5299: CO-3544 modified to include PO/PS bonds (antisense eG*eT*eTe[5mC]eTe[5mC]e[5mC]e[5mC]eTeA*eG*e[5mC]*eT*eGeT*eG*eT*eA*eG*eT)
40 nM FC (mGrn mRNA) (Table 15, Neuro2a): 1.2 FC | 80 nM FC (mGrn mRNA) (Table 15, Neuro2a): 1.3 FC | 160 nM FC (mGrn mRNA) (Table 15, Neuro2a): 1.5 FC

CO-3550: ASO targeting the Grn promoter (− strand) (antisense eG*eG*eT*eT*eG*eT*eG*eT*e[5mC]*eA*eG*e[5mC]*eT*eT*eT*eA*eT*eT*eT*e[5mC])
mGRN mRNA FC (Neuro2a): 0.9 FC

CO-5292: CO-3544 modified to include PO/PS bonds (antisense eG*eT*eT*e[5mC]*eT*e[5mC]*e[5mC]e[5mC]eTeAeGe[5mC]eTeGeTeGeT*eA*eG*eT)
40 nM FC (mGrn mRNA) (Table 15, Neuro2a): 1.1 FC | 80 nM FC (mGrn mRNA) (Table 15, Neuro2a): 1.1 FC | 160 nM FC (mGrn mRNA) (Table 15, Neuro2a): 1.1 FC

CO-3570: ASO targeting the Grn promoter (− strand) (antisense e[5mC]*eT*eA*eA*eT*e[5mC]*eA*e[5mC]*eA*eT*eG*eA*eT*e[5mC]*e[5mC]*e[5mC]*eT*eA*eG*eA)
mGRN mRNA FC (Neuro2a): 1.2 FC

CO-5298: CO-3544 modified to include PO/PS bonds (antisense eG*eT*eTe[5mC]eTe[5mC]e[5mC]e[5mC]eTeAeGe[5mC]*eT*eG*eT*eG*eT*eA*eG*eT)
40 nM FC (mGrn mRNA) (Table 15, Neuro2a): 1.3 FC | 80 nM FC (mGrn mRNA) (Table 15, Neuro2a): 1.3 FC | 160 nM FC (mGrn mRNA) (Table 15, Neuro2a): 1.5 FC

CO-3576: ASO targeting the Grn promoter (− strand) (antisense eA*eT*eG*eT*eA*e[5mC]*eA*eA*eA*eA*eG*eT*e[5mC]*e[5mC]*e[5mC]*eG*eA*eT*e[5mC]*e[5mC])
mGRN mRNA FC (Neuro2a): 1.2 FC

CO-5311: CO-3595 modified to include varying PO/PS internucleotide bonds (antisense e[5mC]*e[5mC]*eTeGeAeAe[5mC]eTeGeTeAeT*eG*eG*e[5mC]*eT*eG*eA*e[5mC]*e[5mC])
40 nM FC (mGrn mRNA) (Table 16, Neuro2A): 1.5 FC | 80 nM FC (mGrn mRNA) (Table 16, Neuro2A): 1.7 FC | 160 nM FC (mGrn mRNA) (Table 16, Neuro2A): 1.7 FC
